Structures can show the parent of a compound that is named as a salt. Where two headings read alike, the source gives them in different places.
Key:
[1] = system: Staphulococcus aureus (ATCC 29213); assay: Minimum inhibitory concentration (MIC) assay, Example 33; format: cell-based, Staphylococcus aureus; settings: Staphylococcus aureus
Summary of the method: (§1)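 Following CLSI guidelines, each bacterial strain was taken from a twice-restreaked agar colony and suspended to 0.5 McFarland density. After a 1:100 dilution it was mixed 1:2 with 2-fold serially diluted compound in CAMHB. The MIC was read after incubation at 35 °C.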

[2] = Solubility (Sol., Table 1); format: physicochemical
pH (Table 1) = format: physicochemical
[3] = system: Candida albicans (ATCC 90029); assay: Minimum inhibitory concentration (MIC) assay, Example 33; format: cell-based; settings: Candida albicans
Summary of the method: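 Broth microdilution per CLSI guidelines in RPMI 1640; inoculum set to OD530 0.08–0.13, diluted 1:50 then 1:20 to 2× strength and mixed 1:2 with 2-fold serial compound dilutions. Incubated at 35° C; MIC read per CLSI.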

[4] = system: Escherichia coli (ATCC 25922); assay: as above; format: cell-based; settings: Escherichia coli
Summary of the method: as §1

[5] = system: Pseudomonas aeruginosa (ATCC 27853); assay: as above; format: cell-based; settings: Pseudomonas aeruginosa
Summary of the method: as §1

[6] = system: Aspergillus niger (CMCC 98003); assay: as above; format: cell-based; settings: for MIC: Aspergillus niger; for MIC Aspergillus niger: n = 2
Summary of the method: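 Broth microdilution MIC per CLSI guidelines in RPMI 1640 with serial 2-fold compound dilutions. Spore suspension from sporulating colonies adjusted to OD530 0.09-0.13, diluted 1:50 as 2× inoculum and added 1:2 to drug wells; plates incubated at 35 °C and MIC read per CLSI.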

[7] = system: Staphylococcus aureus (ATCC 29213); assay: Time kill study, Example 33 (0 to 5 min); format: cell-based; settings: 1×MIC
Summary of the method: (§2)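 Per CLSI guidelines, strain suspensions were mixed 1:1 by volume with compound solution; samples taken at 0 min, 30 sec, 1 min and 5 min were diluted and plated on agar. Colonies were counted after 24 to 48 hrs incubation and viable counts reported as Log10 CFU/mL.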

[8] = system: Escherichia coli (ATCC 25922); assay: Time kill study, Example 33 (0 to 5 min); format: cell-based; settings: 1×MIC
Summary of the method: as §2

[9] = system: Pseudomonas aeruginosa (ATCC 27853); assay: Time kill study, Example 33 (0 to 5 min); format: cell-based; settings: 1×MIC
Summary of the method: as §2

[10] = ATCC29213, read-out: MIC S. aureus, n = 1
[11] = ATCC29213, read-out: MIC S. aureus, n = 2
[12] = ATCC90029, read-out: MIC Candida albicans, n = 1
[13] = ATCC90029, read-out: MIC Candida albicans, n = 2
[14] = ATCC25922, Table 19 summary of Example 33 and Example 35
[15] = ATCC25922, read-out: MIC E. coli, n = 1
[16] = ATCC25922, read-out: MIC E. coli, n = 2
[17] = ATCC27853, read-out: MIC P. aeruginosa, n = 1
[18] = ATCC27853, read-out: MIC P. aeruginosa, n = 2
[19] = CMCC98003, read-out: MIC Aspergillus niger

SMILES | MIC ([1]; ATCC29213, Table 19 summary) [µg/mL] | MIC [1, 10] [µg/mL] | MIC [1, 11] [µg/mL] | Sol. [2] [%] | pH (pH (Table 1)) | MIC ([3]; ATCC90029, Table 19 summary) [µg/mL] | MIC [3, 12] [µg/mL] | MIC [3, 13] [µg/mL] | MIC [4, 14] [µg/mL] | MIC [4, 15] [µg/mL] | MIC [4, 16] [µg/mL] | MIC ([5]; ATCC27853, Table 19 summary) [µg/mL] | MIC [5, 17] [µg/mL] | MIC [5, 18] [µg/mL] | MIC ([6]; CMCC98003) [µg/mL] | MIC [6, 19] [µg/mL] | MIC Aspergillus niger [6] [µg/mL] | Viable counts, Staphylococcus aureus time kill study ([7]; 0.5 min) [Log10 CFU/mL] | Viable counts, Staphylococcus aureus time kill study ([7]; 1 min) [Log10 CFU/mL] | Viable counts, Staphylococcus aureus time kill study ([7]; 5 min) [Log10 CFU/mL] | also measured
CCCCCCCCCCCC(C)OC(=O)C(C)N(C)C (stereo not drawn) [Nex-64, Tridecan-2-yl 2-(dimethylamino)propanoate hydrochloride] | 3130 | 3130 | 3130 | 44 | 1.95 | > 12500 | > 12500 | > 12500 | 3130 | 3130 | 3130 | 6250 | 6250 | 6250 | > 12500 | > 12500 | >12500 | 6.41 | 6.38 | 6.36 | Viable counts, Staphylococcus aureus time kill study ([7]; time 0): 6.34 Log10 CFU/mL; Viable counts, Escherichia coli time kill study ([8]; 0.5 min): 5.73 Log10 CFU/mL; Viable counts, Escherichia coli time kill study ([8]; 1 min): 5.7 Log10 CFU/mL; Viable counts, Escherichia coli time kill study ([8]; 5 min): <3.52 Log10 CFU/mL; Viable counts, Escherichia coli time kill study ([8]; time 0): 5.71 Log10 CFU/mL; Viable counts, Pseudomonas aeruginosa time kill study ([9]; 0.5 min): 4 Log10 CFU/mL; Viable counts, Pseudomonas aeruginosa time kill study ([9]; 1 min): <3.70 Log10 CFU/mL; Viable counts, Pseudomonas aeruginosa time kill study ([9]; 5 min): <3.52 Log10 CFU/mL; Viable counts, Pseudomonas aeruginosa time kill study ([9]; time 0): 5.45 Log10 CFU/mL
CCCCCCCCCCCCOC(=O)C(CC(C)C)N(C)C (stereo not drawn) [Nex-55, Dodecyl 2-(dimethylamino)-4-methylpentanoate hydrochloride] | 6250 | 6250 | 6250 | 50 | 1.84 | > 12500 | > 12500 | > 12500 | 6250 | 6250 | 6250 | 6250 | 6250 | 6250 | > 12500 | > 12500 | >12500 | 6.22 | 6.21 | 6.18 | Viable counts, Staphylococcus aureus time kill study ([7]; time 0): 6.23 Log10 CFU/mL; Viable counts, Escherichia coli time kill study ([8]; 0.5 min): 5.71 Log10 CFU/mL; Viable counts, Escherichia coli time kill study ([8]; 1 min): 5.51 Log10 CFU/mL; Viable counts, Escherichia coli time kill study ([8]; 5 min): 4.6 Log10 CFU/mL; Viable counts, Escherichia coli time kill study ([8]; time 0): 5.68 Log10 CFU/mL; Viable counts, Pseudomonas aeruginosa time kill study ([9]; 0.5 min): 5.61 Log10 CFU/mL; Viable counts, Pseudomonas aeruginosa time kill study ([9]; 1 min): 5.58 Log10 CFU/mL; Viable counts, Pseudomonas aeruginosa time kill study ([9]; 5 min): 5.45 Log10 CFU/mL; Viable counts, Pseudomonas aeruginosa time kill study ([9]; time 0): 5.37 Log10 CFU/mL
CCCCCCCCCCCCOC(=O)C(C(C)C)N(C)C (stereo not drawn) [Nex-53, Dodecyl 2-(dimethylamino)-3-methylbutanoate hydrochloride] | 6250 | 6250 | 6250 | 44 | 1.69 | > 12500 | > 12500 | > 12500 | 6250 | 6250 | 6250 | 6250 | 6250 | 6250 | > 12500 | > 12500 | >12500 | 6.2 | 6.24 | 6.21 | Viable counts, Staphylococcus aureus time kill study ([7]; time 0): 6.35 Log10 CFU/mL; Viable counts, Escherichia coli time kill study ([8]; 0.5 min): 5.72 Log10 CFU/mL; Viable counts, Escherichia coli time kill study ([8]; 1 min): 5.71 Log10 CFU/mL; Viable counts, Escherichia coli time kill study ([8]; 5 min): <3.52 Log10 CFU/mL; Viable counts, Escherichia coli time kill study ([8]; time 0): 5.64 Log10 CFU/mL; Viable counts, Pseudomonas aeruginosa time kill study ([9]; 0.5 min): 5.54 Log10 CFU/mL; Viable counts, Pseudomonas aeruginosa time kill study ([9]; 1 min): 5.47 Log10 CFU/mL; Viable counts, Pseudomonas aeruginosa time kill study ([9]; 5 min): 5.49 Log10 CFU/mL; Viable counts, Pseudomonas aeruginosa time kill study ([9]; time 0): 5.54 Log10 CFU/mL
